# Data published in patent US20260193668A1, “NOVEL PEPTIDES AND USE THEREOF FOR MODULATING PROTEIN ACCUMULATION” (UNIVERSITE TOULOUSE III - PAUL SABATIER, priority 2022, published 2026).
# Key:
# [1] = test system: Botrytis cinerea; assay: Infection assay of A. thaliana leaves inoculated with B. cinerea; type: in vivo; details: 100 μM peptide, compared with plants treated with an irrelevant peptide
# Procedure: (§1) (a, b) Length of primary roots of A. thaliana seedlings treated with a Scrambled cPEPdcl1 or with a cPEPdcl1. (c) Relative chlorophyll content of A. thaliana seedlings treated with the corresponding peptide. (d) Resumption of growth of A. thaliana seedlings after heat shock at 45° C. for 45 min and treated with the corresponding peptide. (e) Relative lesion area of A. thaliana seedlings infected with B. cinerea and treated with the indicated peptide. (f) Measurement of the flowering day of A. thaliana plants treated with the indicated peptides. (g, h) Flowering day of A. thaliana plants treated with an irrelevant peptide or a mixture of cPEPs (targeting EIN2, BR11, BAK1 and WUS). (i, j) Leaf area of A. thaliana plants treated with an irrelevant peptide or a mixture of cPEPs (targeting EIN2, BR11, BAK1 and WUS).
# (a) Quantification of CPK3 expression, using CPK3 antibodies, in peptide-treated A. thaliana plants. (b-c) Infection assay of peptide-treated A. thaliana leaves inoculated with B. cinerea spores.
# Wild-type or mutant A. thaliana leaves were sprayed daily with 100 μM of peptide or 100 μM of the corresponding scramble version for 3 days. Six hours after the last treatment, five mature leaves per plant were inoculated with a 5 μL droplet of 2.5×10^5 spores/mL of Botrytis cinerea strain B05.10 diluted in 100 μM of peptide or its corresponding scramble version. After inoculation, plants were maintained at 100% relative humidity. Then, a 2 μL droplet of 100 μM of peptide or 100 μM of the corresponding scramble version was deposited daily on B. cinerea-infected leaves for 3 days (until symptoms appeared). Leaves were removed from the plants to determine lesion areas using the ImageJ programme. For tomato, the protocol was the same except that inoculation was carried out with 5,000 B. cinerea spores, without peptides. Peptides were added 1 h after inoculation (1 μL of 500 μM) and each day for two days with 5 μL of 100 μM peptide. For infection of M. truncatula with A. euteiches, plants were grown on agar medium and treated with 10 μL of 100 μM peptide, 24 h before, 24 h and 72 h after infection with 10 μL (1000 spores) of A. euteiches spores. Plants were harvested 7 days after inoculation for RNA extraction.
# [2] = test system: A. thaliana plants; assay: Flowering day of A. thaliana plants; type: in vivo, Arabidopsis thaliana; details: sprayed with 10 μM peptide three times a week until flowering
# Procedure: as §1
# N. benthamiana plants were treated by spraying the leaves 24 h before harvesting. For Luc assays, 100 μL of MS/2 liquid medium containing the peptides was added to each well. 5 μL of luciferin was added and luciferase activity was read 30 min later using a spectrophotometer. All other assays were performed by spraying or watering the plants. To quantify the protein level induced by cPEPs in Arabidopsis, rosettes were sprayed daily with 100 μM of peptide or its control for 5 days. Leaves were harvested 6 h after the last treatment for western blot analysis. For the flowering assay and chlorophyll content, 10-day-old Arabidopsis plants were sprayed with 500 μL of 10 μM peptide three times a week until flowering. Chlorophyll content was measured using the SPAD chlorophylometer (Konica Minolta). Leaf area was measured using ImageJ software. Barbarea vulgaris and A. hypochondriacus seedlings were treated immediately after sowing and 3 times a week with 500 μL of a 20 μM mixture of each peptide. For western blotting, a heat shock was performed by placing 20-day-old plants grown in 24-well plates on MS/2 for 90 min at 37° C. before harvesting. The plants were treated with 100 μM of peptide for 24 h. For the heat shock resistance test on A. thaliana, 3-day-old seedlings were treated for three days with 100 μM of peptide before placing the plants at 45° C. for 45 min. The plants were placed in a growth chamber to recover and treated 24 h after heat shock with 100 μM of peptide. For soybean heat shock, one-week-old seedlings were treated for 48 h, 24 h and 30 min before being placed at 45° C. for 24 h. For soybean growth, seedlings were treated 3 times a week for a fortnight with 500 μL of 100 μM peptide.
# [3] = test system: luciferase mRNA; assay: RNA-IP followed by PCR on plants treated with HA-tagged peptides; type: binding, Arabidopsis thaliana; details: anti-HA magnetic beads
# From the text: Analysis of luciferase expression in A. thaliana constitutively expressing the LUC transgene. (a) Agarose gel after PCR amplification of RNA obtained by immunoprecipitation using anti-HA magnetic beads, followed by RT-PCR, on plants treated with the indicated peptide (SC-HA: Scrambled cPEPluc-HA; Luc-HA: cPEPluc-HA). (b) Relative expression of the luciferase transgene in plants treated with the indicated peptide, quantified by RT-qPCR. (c-e) Relative quantification of LUC in plants treated with the indicated peptide. (f, g) Ratio between induction and quantification of LUC in plants treated with cPEPluc compared to plants treated with Scrambled cPEPluc, using different peptide concentrations (f) or taken at different time points (g). (h) Transcriptomic analysis of plants treated with cPEPluc-HA compared to plants treated with Scrambled cPEPluc-HA. (i) Proteomic analysis of plants treated with cPEPluc-HA compared to plants treated with Scrambled cPEPluc-HA. Protein expression was analysed by Western blots and quantified using ImageJ.
# RNA co-immunoprecipitation was adapted from Merret et al. (Plant Physiol. 174:1216-1225. 2017). 400 mg of tissue powder was incubated in 3 mL of lysis buffer (200 mM Tris, pH 9.0, 110 mM potassium acetate, 0.5% Triton X-100, 0.1% Tween© 20, 5 mM DTT, 1.5% protease inhibitor and 80 units·ml-1 RNasin). […]
# [4] = test system: A. thaliana seedlings; assay: Relative chlorophyll content of A. thaliana; type: in vivo, Arabidopsis thaliana; details: sprayed with 10 μM peptide three times a week
# Procedure: as §1
# N. benthamiana plants were treated by spraying the leaves 24 h before harvesting. For Luc assays, 100 μL of MS/2 liquid medium containing the peptides was added to each well. 5 μL of luciferin was added and luciferase activity was read 30 min later using a spectrophotometer. […] To quantify the protein level induced by cPEPs in Arabidopsis, rosettes were sprayed daily with 100 μM of peptide or its control for 5 days. […] Chlorophyll content was measured using the SPAD chlorophylometer (Konica Minolta). Leaf area was measured using ImageJ software. […]
# [5] = test system: Aphanomyces euteiches; assay: M. truncatula seedlings infected with A. euteiches; type: in vivo; details: 100 μM peptide
# From the text: (§2) (a) FRET-FLIM analysis of the interaction between cPEPnsp1-FAM and NSP1 (left) or NSP1ΔcPEP (right) in planta. (b) qRT-PCR quantification of NSP1 expression in M. truncatula roots treated with cPEPnsp1 or Scrambled cPEPnsp1. (c) GUS quantification of peptide-treated M. truncatula roots carrying the Pro NSP1-NSP1-GUS fusion. (d, e) Quantification of NSP1 expression in N. benthamiana leaves after infiltration of different constructs: ‘wild type’ i.e. version of NSP1 wherein the cPEP sequence has been deleted (NSP1 ΔcPEP) or version of NSP1 wherein the cPEP sequence has been replaced by an artificial sequence (NSP1 ΔcPEP-cPEPartificial), with an empty vector (control) or cPEPnsp1 or cPEPartificial. (f, g) Formation of lateral roots of M. truncatula WT seedlings, nsp1 or overexpressing NSP1, in response to cPEPnsp1 or Scrambled cPEPnsp1. (h, i) Quantification of nodules on roots of M. truncatula roots treated with an irrelevant peptide or cPEPskl. (j) Root development of M. truncatula seedlings infected with A. euteiches and treated with an irrelevant peptide or cPEPrh10. (k) Relative expression of A. euteiches α-tubulin in M. truncatula seedlings infected with A. euteiches and treated with an irrelevant peptide or cPEPrh10.
# Quantification of mRNAs was performed by qRT-PCR using appropriate primer pairs selected from the sequences: SEQ ID NOs: 367 to 374. […]
# [6] = test system: M. truncatula seedlings; assay: Formation of lateral roots of M. truncatula seedlings; type: in vivo, Medicago truncatula
# From the text: as §2, with “(j) Root development of M. truncatula seedlings infected with A. euteiches and treated with an irrelevant peptide or cPEPrh10. (k) Relative expression of A. euteiches α-tubulin in M. truncatula seedlings infected with A. euteiches and treated with an irrelevant peptide or cPEPrh10.” left out
# In order to verify whether cPEPs can target any protein, the activity of 12 cPEPs targeting 12 different proteins for which antibodies were available was studied and validated in three different plant species. The question was whether the increase in the quantity of proteins observed after treatment with cPEP was sufficient to modulate plant development. […]
substance,measurement,setting,value
SEQ ID NO: 162 (RSSKTELWTR; cPEPcpk3),lesion size (plant defence against Botrytis cinerea),[1],decrease
SEQ ID NO: 181 (NKGKTVEGWR; cPEPtap46),"plant development, measured by the day of flowering",[2],decrease
SEQ ID NO: 182 (ASGNETDEYD; cPEPspt),"plant development, measured by the day of flowering",[2],decrease
SEQ ID NO: 183 (SDFSSKYRED; cPEPga2ox7),"plant development, measured by the day of flowering",[2],decrease
SEQ ID NO: 184 (LRETDLKDRR; cPEPphyb),"plant development, measured by the day of flowering",[2],decrease
SEQ ID NO: 185 (VERRETPSGE; cPEPhag5),"plant development, measured by the day of flowering",[2],decrease
SEQ ID NO: 186 (HGEARDSEEV; cPEPshr),"plant development, measured by the day of flowering",[2],decrease
SEQ ID NO: 187 (KEPEQRKRKS; cPEPmapkkk3),lesion size (plant defence against Botrytis cinerea),[1],decrease
SEQ ID NO: 188 (PLTGGRRDSK; cPEPmapkkk5_1),lesion size (plant defence against Botrytis cinerea),[1],decrease
SEQ ID NO: 194 (ERKFRLHKSP; cPEPabcg34),lesion size (plant defence against Botrytis cinerea),[1],decrease
SEQ ID NO: 195 (IRLDTGEEPD; cPEPagb1),lesion size (plant defence against Botrytis cinerea),[1],decrease
SEQ ID NO: 198 (RHRNLVRLQG; AhBRI1),"plant development, measured by the day of flowering",[2],decrease
SEQ ID NO: 199 (ARGLAYLHE; AhBAK1),"plant development, measured by the day of flowering",[2],decrease
SEQ ID NO: 204 (NPVERSRHRD; cPEPein2_1),"plant development, measured by the day of flowering",[2],decrease
SEQ ID NO: 386: Scrambled peptide corresponding to HA-tagged cPEPluc (RNYKNGRTHLYPYDVPDYA; Scrambled cPEPluc-HA) [reference compound],interaction with luciferase mRNA (RNA-IP followed by PCR),[3],could not
SEQ ID NO: 406 (EKVVERRQRR; cPEPabi5),chlorophyll content,[4],decreasing
SEQ ID NO: 407 (EWKKVKGKMS; cPEPsgr1),chlorophyll content,[4],increasing
SEQ ID NO: 412 (QRLSLRNPLK; cPEPrh10),root development (resistance to the pathogen),[5],increased
same,expression of A. euteiches α-tubulin in roots,[5]; 7 days after inoculation,decreased
"cPEPjar1 (PETNFERDSS; cPEPjar1) [SEQ ID NO: 192, cPEP targeting the A. thaliana plant defence regulator JAR1]",lesion size (plant defence against Botrytis cinerea),[1],decrease
cPEPluc-HA: HA-tagged cPEPluc (KRYGLNTNHRYPYDVPDYA; cPEPluc-HA),interaction with luciferase mRNA (RNA-IP followed by PCR),[3],able to interact
cPEPmrb1 (NSEITKTAND; cPEPmrb1) [SEQ ID NO: 180],"plant development, measured by the day of flowering",[2],increased
cPEPnsp1 (DYGTKSNIRS; cPEPnsp1_3),amount of lateral roots,[6]; M. truncatula WT seedlings,decreased
same,sensitivity of lateral root formation to the peptide,[6]; nsp1 mutant and NSP1-overexpressing M. truncatula,insensitive
cPEPshy2 (EENRSELLQR; cPEPshy2) [SEQ ID NO: 178],"plant development, measured by the day of flowering",[2],increased
cPEPwus (RWTPTTEQIK; cPEPwus) [SEQ ID NO: 196],"plant development, measured by the day of flowering",[2],decrease
